Columns and labels:
[1] = tested on: human acute monocytic leukemia cell line MV-4-11; assay: Assay 2: cell proliferation assay (ATP quantitation, CellTiter-Glo), MV-4-11; format: cell-based; conditions: Homo sapiens, MV4-11, 72 h, MV-4-11 cells
In short: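 MV-4-11 cells, 1.67×10^4 per well in medium with 10% FBS, were exposed to compound for 72 h at 37° C., 5% CO2; HL-60 cells served as toxicity control. Proliferation read as ATP content by CellTiter-Glo luminescence.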

[2] = molecular target: T1, biotinylated wild-type menin and MLL-AF9 fusion protein (menin/MLL binding) (Homo sapiens, UniProt O00255); assay: Assay 1: menin/MLL binding AlphaLISA assay, wild-type menin; conditions: Table 30; column head does not say wild-type or mutated menin
T1 construct: made in house; host or cells: menin: E. coli; MLL-AF9-FLAG: HEK293 cells, used as cleared lysate
T1 sequence (O00255 1-610): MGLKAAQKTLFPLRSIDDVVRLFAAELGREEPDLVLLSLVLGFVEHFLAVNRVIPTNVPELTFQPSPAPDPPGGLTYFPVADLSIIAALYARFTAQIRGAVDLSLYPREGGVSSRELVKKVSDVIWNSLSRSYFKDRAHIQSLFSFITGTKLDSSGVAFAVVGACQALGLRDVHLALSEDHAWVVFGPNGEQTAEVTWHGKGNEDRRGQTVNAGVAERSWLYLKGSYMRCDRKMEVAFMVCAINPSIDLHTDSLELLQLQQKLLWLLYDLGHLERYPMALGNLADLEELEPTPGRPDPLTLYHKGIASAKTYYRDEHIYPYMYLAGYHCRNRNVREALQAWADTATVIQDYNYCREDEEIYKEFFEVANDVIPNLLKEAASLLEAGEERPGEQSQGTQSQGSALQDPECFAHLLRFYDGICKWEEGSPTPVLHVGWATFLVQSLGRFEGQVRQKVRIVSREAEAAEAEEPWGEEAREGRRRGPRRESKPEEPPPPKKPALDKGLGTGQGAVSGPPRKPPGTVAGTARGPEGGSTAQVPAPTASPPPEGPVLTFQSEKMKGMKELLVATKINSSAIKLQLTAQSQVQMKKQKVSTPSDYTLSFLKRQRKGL
In short: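 Compound was preincubated 30 min at room temperature with biotinylated menin (5 nM) and MLL-AF9-FLAG lysate from HEK293 cells, pH 7.4 buffer with 5% DMSO and DTT. Bead-based Alpha signal after 60 min with streptavidin donor and anti-FLAG acceptor beads; four-parameter logistic fit gave IC50.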

EC50 [1] | IC50 [2] | SMILES
< 100 nM | < 100 nM | CC(C)C(=O)c1cc(F)ccc1Oc1cncnc1N1CCC2(CCN(Cc3ccc4c(c3)NC(=O)C4(C)C#N)C2)C1 (stereo not drawn) [Example 11, 6-((7-(5-(4-fluoro-2-isobutyrylphenoxy)pyrimidin-4-yl)-2,7-diazaspiro[4.4]nonan-2-yl)methyl)-3-methyl-2-oxoindoline-3-carbonitrile]
100 to 1000 nM | < 100 nM | CC(C)N(C(=O)c1cc(F)ccc1Oc1cncnc1N1CC2(CCN(C(=O)CCc3ccc(F)cc3)C2)C1)C(C)C [Example 12, 5-fluoro-2-((4-(6-(3-(4-fluorophenyl)propanoyl)-2,6-diazaspiro[3.4]octan-2-yl)pyrimidin-5-yl)oxy)-N,N-diisopropylbenzamide]
100 to 1000 nM | < 100 nM | CC(C)c1ccccc1-c1cc(F)ccc1Nc1cncnc1N1CC2(CN(CC3CCOCC3)C2)C1 [Example 15, N-(5-fluoro-2′-isopropyl-[1,1′-biphenyl]-2-yl)-4-(6-((tetrahydro-2H-pyran-4-yl)methyl)-2,6-diazaspiro[3.3]heptan-2-yl)pyrimidin-5-amine]
100 to 1000 nM | < 100 nM | CC(C)N(C(=O)c1cc(F)ccc1Nc1cncnc1N1CCC2(CC1)CN(CC(C)(C)O)C2)C(C)C [Example 16, 5-fluoro-2-((4-(2-(2-hydroxy-2-methylpropyl)-2,7-diazaspiro[3.5]nonan-7-yl)pyrimidin-5-yl)amino)-N,N-diisopropylbenzamide]
100 to 1000 nM | < 100 nM | CC(C)c1ncncc1-c1cc(F)ccc1Oc1cncnc1N1CC2(CC(NCc3ccc(F)cc3)CO2)C1 (stereo not drawn) [Example 18, 2-(5-(4-fluoro-2-(4-isopropylpyrimidin-5-yl)phenoxy)pyrimidin-4-yl)-N-(4-fluorobenzyl)-5-oxa-2-azaspiro[3.4]octan-7-amine]
100 to 1000 nM | < 100 nM | CC(C)c1ccccc1-c1cc(F)ccc1Oc1cncnc1N1CC2(CC(NCc3ccc(C#N)cc3)CO2)C1 (stereo not drawn) [Example 19, 4-(((2-(5-((5-fluoro-2′-isopropyl-[1,1′-biphenyl]-2-yl)oxy)pyrimidin-4-yl)-5-oxa-2-azaspiro[3.4]octan-7-yl)amino)methyl)benzonitrile]
≥ 1000 nM | < 100 nM | Cn1c(=O)[nH]c2ccc(CN3CCC4(CCC(c5ncncc5Oc5ccc(F)cc5Cl)C4)C3)cc21 (stereo not drawn) [Example 27, 6-((7-(5-(2-chloro-4-fluorophenoxy)pyrimidin-4-yl)-2-azaspiro[4.4]nonan-2-yl)methyl)-1-methyl-1H-benzo[d]imidazol-2(3H)-one]
< 100 nM | < 100 nM | CC(C)c1ncncc1-c1cc(F)ccc1Oc1cnccc1N1CCC2(CCN(Cc3ccc4[nH]c(=O)[nH]c4c3)C2)C1 (stereo not drawn) [Example 28, 5-((7-(3-(4-fluoro-2-(4-isopropylpyrimidin-5-yl)phenoxy)pyridin-4-yl)-2,7-diazaspiro[4.4]nonan-2-yl)methyl)-1,3-dihydro-2H-benzo[d]imidazol-2-one]
100 to 1000 nM | < 100 nM | CCC(C)(OC)c1cc(F)ccc1Oc1cncnc1N1CCC2(CCN(Cc3ccc4[nH]c(=O)[nH]c4c3)C2)C1 (stereo not drawn) [Example 33, 5-((7-(5-(4-fluoro-2-(2-methoxybutan-2-yl)phenoxy)pyrimidin-4-yl)-2,7-diazaspiro[4.4]nonan-2-yl)methyl)-1,3-dihydro-2H-benzo[d]imidazol-2-one]
≥ 1000 nM | < 100 nM | CCC(O)(CC)c1cc(F)ccc1Oc1cncnc1N1CCC2(CCN(Cc3ccc4[nH]c(=O)[nH]c4c3)C2)C1 (stereo not drawn) [Example 34, 5-((7-(5-(4-fluoro-2-(3-hydroxypentan-3-yl)phenoxy)pyrimidin-4-yl)-2,7-diazaspiro[4.4]nonan-2-yl)methyl)-1,3-dihydro-2H-benzo[d]imidazol-2-one]
100 to 1000 nM | < 100 nM | CC(C)(O)CCc1cc(F)ccc1Oc1cncnc1N1CCC2(CCN(Cc3ccc4[nH]c(=O)[nH]c4c3)C2)C1 (stereo not drawn) [Example 36, 5-((7-(5-(4-fluoro-2-(3-hydroxy-3-methylbutyl)phenoxy)pyrimidin-4-yl)-2,7-diazaspiro[4.4]nonan-2-yl)methyl)-1H-benzo[d]imidazol-2(3H)-one]
100 to 1000 nM | < 100 nM | COC(=O)[C@@H]1CC1c1cc(F)ccc1Oc1cncnc1N1CCC2(CCN(Cc3ccc4[nH]c(=O)[nH]c4c3)C2)C1 (stereo partly drawn) [Example 37, Methyl 2-(5-fluoro-2-((4-(7-((2-oxo-2,3-dihydro-1H-benzo[d]imidazol-5-yl)methyl)-2,7-diazaspiro[4.4]nonan-2-yl)pyrimidin-5-yl)oxy)phenyl)cyclopropanecarboxylate]
≥ 1000 nM | < 100 nM | CNC(=O)C1CC1c1cc(F)ccc1Oc1cncnc1N1CCC2(CCN(Cc3ccc4[nH]c(=O)[nH]c4c3)C2)C1 (stereo not drawn) [Example 38, 2-(5-fluoro-2-((4-(7-((2-oxo-2,3-dihydro-1H-benzo[d]imidazol-5-yl)methyl)-2,7-diazaspiro[4.4]nonan-2-yl)pyrimidin-5-yl)oxy)phenyl)-N-methylcyclopropane carboxamide]
≥ 1000 nM | 100 to 1000 nM | NS(=O)(=O)c1ccc2c(c1)CC(C(=O)N1CC3(C1)CN(c1ncncc1Oc1ccc(F)cc1Cl)C3)C2 (stereo not drawn) [Example 40, 2-(6-(5-(2-chloro-4-fluorophenoxy)pyrimidin-4-yl)-2,6-diazaspiro[3.3]heptane-2-carbonyl)-2,3-dihydro-1H-indene-5-sulfonamide]
< 100 nM | < 100 nM | CC(C)c1ccccc1-c1cc(F)ccc1Oc1cncnc1N1CCC2(CCN(Cc3ccc4[nH]c(=O)[nH]c4c3)C2)C1 (stereo not drawn) [Example 41, 5-((7-(5-((5-fluoro-2′-isopropyl-[1,1′-biphenyl]-2-yl)oxy)pyrimidin-4-yl)-2,7-diazaspiro[4.4]nonan-2-yl)methyl)-1H-benzo[d]imidazol-2(3H)-one]
< 100 nM | < 100 nM | NC(=O)c1ccc(-c2cc(F)ccc2Oc2cncnc2N2CCC3(CCN(Cc4ccc5[nH]c(=O)[nH]c5c4)C3)C2)c(C2CC2)c1 (stereo not drawn) [Example 43, 2-cyclopropyl-5′-fluoro-2′-((4-(7-((2-oxo-2,3-dihydro-1H-benzo[d]imidazol-5-yl)methyl)-2,7-diazaspiro[4.4]nonan-2-yl)pyrimidin-5-yl)oxy)-[1,1′-biphenyl]-4-carboxamide]
100 to 1000 nM | < 100 nM | O=C(O)c1ccc(-c2cc(F)ccc2Oc2cncnc2N2CCC3(CCN(Cc4ccc5[nH]c(=O)[nH]c5c4)C3)C2)c(C2CC2)c1 (stereo not drawn) [Example 44, 2-cyclopropyl-5′-fluoro-2′-((4-(7-((2-oxo-2,3-dihydro-1H-benzo[d]imidazol-5-yl)methyl)-2,7-diazaspiro[4.4]nonan-2-yl)pyrimidin-5-yl)oxy)-[1,1′-biphenyl]-4-carboxylic acid]
< 100 nM | < 100 nM | CN(C)C(=O)c1ccc(-c2cc(F)ccc2Oc2cncnc2N2CCC3(CCN(Cc4ccc5[nH]c(=O)[nH]c5c4)C3)C2)c(C2CC2)c1 (stereo not drawn) [Example 45, 2-cyclopropyl-5′-fluoro-N,N-dimethyl-2′-((4-(7-((2-oxo-2,3-dihydro-1H-benzo[d]imidazol-5-yl)methyl)-2,7-diazaspiro[4.4]nonan-2-yl)pyrimidin-5-yl)oxy)-[1,1′-biphenyl]-4-carboxamide]

Reference: patent US12312359B2 (Vitae Pharmaceuticals, LLC, priority 2016, dated 2025)
